Measurements: PMC6716157 (Journal of the American Chemical Society, 2019)

Assays:
MuMftD (MftD) = biological target: T1, MuMftD (MftD) (Mycobacterium ulcerans, UniProt A0PM50); test: HPLC of flavin released by heat from purified protein; assay type: binding; settings: copurified; bound reduced as isolated, released on oxidation
T1 sequence (A0PM50 1-390): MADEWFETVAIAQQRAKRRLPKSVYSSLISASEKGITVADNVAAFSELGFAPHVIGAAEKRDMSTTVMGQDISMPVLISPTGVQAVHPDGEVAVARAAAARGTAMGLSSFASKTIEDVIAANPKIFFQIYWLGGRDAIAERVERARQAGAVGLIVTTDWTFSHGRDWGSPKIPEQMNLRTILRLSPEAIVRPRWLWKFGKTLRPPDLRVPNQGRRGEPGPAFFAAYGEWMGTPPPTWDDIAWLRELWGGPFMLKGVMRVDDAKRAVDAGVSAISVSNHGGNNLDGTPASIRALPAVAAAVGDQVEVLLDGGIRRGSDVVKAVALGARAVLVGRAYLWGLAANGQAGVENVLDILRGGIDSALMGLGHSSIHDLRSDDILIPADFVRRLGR

MsMftD = MsMftD (Mycolicibacterium smegmatis, UniProt A0QSB9); test: HPLC of product, aerobic; assay type: biochemical; settings: oxidative deamination to PMFT
[1] = biological target: MsCDH (carveol dehydrogenase, Msmeg_1410) (Mycolicibacterium smegmatis, UniProt A0QSA5); test: UV-vis absorbance of copurified NADH at […] nm; assay type: binding; settings: pH 7.0, non-exchangeable, oxidised by PMFT
MsCDH (carveol dehydrogenase, Msmeg_1410), sequence (A0QSA5 1-283): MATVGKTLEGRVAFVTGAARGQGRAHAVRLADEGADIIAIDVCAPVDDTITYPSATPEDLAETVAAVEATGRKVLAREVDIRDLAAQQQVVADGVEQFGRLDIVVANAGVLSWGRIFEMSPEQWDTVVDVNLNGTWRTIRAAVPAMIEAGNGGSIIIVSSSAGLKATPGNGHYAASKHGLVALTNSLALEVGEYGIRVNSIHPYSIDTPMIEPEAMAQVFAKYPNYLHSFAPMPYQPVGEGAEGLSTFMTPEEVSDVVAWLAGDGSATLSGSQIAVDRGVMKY

MsMftD, sequence (A0QSB9 whole entry): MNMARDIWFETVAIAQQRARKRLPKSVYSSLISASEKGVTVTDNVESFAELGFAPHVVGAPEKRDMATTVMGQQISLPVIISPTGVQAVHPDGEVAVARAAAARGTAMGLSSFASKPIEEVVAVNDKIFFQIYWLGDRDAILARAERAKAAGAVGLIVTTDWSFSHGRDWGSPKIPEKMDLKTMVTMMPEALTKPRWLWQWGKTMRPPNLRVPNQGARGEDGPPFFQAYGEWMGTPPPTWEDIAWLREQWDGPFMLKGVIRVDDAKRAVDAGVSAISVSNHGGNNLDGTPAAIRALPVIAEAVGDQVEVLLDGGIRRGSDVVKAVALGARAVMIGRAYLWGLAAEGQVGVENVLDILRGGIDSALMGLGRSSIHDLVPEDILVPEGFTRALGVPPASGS

## Cc1cc2nc3c(=O)[nH]c(=O)nc-3n(C[C@H](O)[C@H](O)[C@H](O)COP(=O)(O)O)c2cc1C [FMN]
MuMftD (MftD)
  HPLC of flavin released by heat from purified protein; UV-vis: the absorbance features of the cofactor bound to MuMftD originated from FMN

## CC1(C)C(Cc2ccc(O)cc2)NC(=O)C1N (stereo not drawn) [AHDP, 3-amino-5-[(p-hydroxyphenyl)methyl]-4,4-dimethyl-2-pyrrolidinone]
MsMftD
  HPLC of product, aerobic: the HPLC chromatogram for the MsMftD reaction showed similar results to that of MuMftD

## NC(=O)C1=CN([C@@H]2O[C@H](COP(=O)(O)OP(=O)(O)OC[C@H]3O[C@@H](n4cnc5c(N)ncnc54)[C@H](O)[C@@H]3O)[C@@H](O)[C@H]2O)C=CC1 [NADH]
[1]
  UV-vis absorbance of copurified NADH at 340 nm: PMFT is mediating the oxidation of NADH to NAD^+ on MsCDH
